In patent US20240116985A1, “STAPLED PEPTIDES AND METHODS THEREOF” (priority 2020, published 2024):

test: CHI Log D procedure; format: physicochemical; conditions: pH 7.4

Going from `CC[C@H](C)[C@H](NC(=O)[C@H](CC(=O)O)NC(=O)[C@H](C)NC(C)=O)C(=O)N[C@]1(C)CCN(C)C(=O)OCC=CCCCCC[C@@](C)(C(=O)N[C@@H](Cc2ccccc2)C(=O)N[C@@H](Cc2c[nH]c3ccccc23)C(=O)N[C@@H](Cc2c[nH]cn2)C(N)=O)NC(=O)[C@H](CCC(N)=O)NC(=O)[C@H](Cc2ccccc2)NC(=O)[C@H](C)NC(=O)[C@H](C)NC(=O)[C@H](CC2CCCCC2)NC(=O)[C@H](CC(=O)O)NC1=O` (single isomer, unassigned) [I-73, Ac-Ala-Asp-Ile-RdN-Asp-Cha-Ala-Ala-Phe-Gln-S7-Phe-Trp-His-NH2] to `CC(=O)N[C@@H](Cc1ccccc1)C(=O)N[C@@H](CC(=O)O)C(=O)N[C@@H](C)C(=O)N[C@]1(C)CCCCCCC=CCOC(=O)N2CC[C@@](C(=O)N[C@@H](Cc3ccccc3)C(=O)N[C@@H](Cc3c[nH]c4ccccc34)C(=O)N[C@@H](CCC(N)=O)C(N)=O)(C2)NC(=O)[C@H](C(C)C)NC(=O)[C@H](CC2CCCCC2)NC(=O)[C@H](C)NC(=O)[C@H](C)NC(=O)[C@H](CC(=O)O)NC(=O)[C@H](CC(=O)O)NC1=O` (single isomer, unassigned) [I-75, Ac-Phe-Asp-Ala-R8-Asp-Asp-Ala-Ala-Cha-Val-PyrS-Phe-Trp-Gln-NH2], the “CHI Log D” value falls from 1.723 to 1.376.

same assay, conditions: pH 7.4, CHI Log D

Compared with `CC[C@H](C)[C@H](NC(=O)[C@H](CC(=O)O)NC(=O)[C@H](C)NC(C)=O)C(=O)N[C@]1(C)CCN(C)C(=O)OCC=CCCCCC[C@@](C)(C(=O)N[C@@H](Cc2ccccc2)C(=O)N[C@@H](Cc2c[nH]c3ccccc23)C(=O)N[C@@H](Cc2c[nH]cn2)C(N)=O)NC(=O)[C@H](CCC(N)=O)NC(=O)[C@H](Cc2ccccc2)NC(=O)[C@H](C)NC(=O)[C@H](C)NC(=O)[C@H](CC2CCCCC2)NC(=O)[C@H](CC(=O)O)NC1=O` (single isomer, unassigned) [I-72, Ac-Ala-Asp-Ile-RdN-Asp-Cha-Ala-Ala-Phe-Gln-S7-Phe-Trp-His-NH2], `CC(=O)N[C@@H](Cc1ccccc1)C(=O)N[C@@H](CC(=O)O)C(=O)N[C@@H](C)C(=O)N[C@]1(C)CCCCCCC=CCOC(=O)N2CC[C@@](C(=O)N[C@@H](Cc3ccccc3)C(=O)N[C@@H](Cc3c[nH]c4ccccc34)C(=O)N[C@@H](CCC(N)=O)C(N)=O)(C2)NC(=O)[C@H](C(C)C)NC(=O)[C@H](CC2CCCCC2)NC(=O)[C@H](C)NC(=O)[C@H](C)NC(=O)[C@H](CC(=O)O)NC(=O)[C@H](CC(=O)O)NC1=O` (single isomer, unassigned) [I-74, Ac-Phe-Asp-Ala-R8-Asp-Asp-Ala-Ala-Cha-Val-PyrS-Phe-Trp-Gln-NH2] is lower in chromatographic logD: 1.72 for the first, 1.33 for the second.

`CC(=O)N[C@@H](Cc1ccccc1)C(=O)N[C@@H](CC(=O)O)C(=O)N[C@@H](C)C(=O)N[C@]1(C)CCCCCCC=CCOC(=O)N2CC[C@@](C(=O)N[C@@H](Cc3ccccn3)C(=O)N[C@@H](Cc3c[nH]c4ccccc34)C(=O)N[C@@H](CCC(N)=O)C(N)=O)(C2)NC(=O)[C@H](C(C)C)NC(=O)[C@H](Cc2ccccc2)NC(=O)[C@H](C)NC(=O)[C@H](C)NC(=O)[C@H](CC(=O)O)NC(=O)[C@H](CC(=O)O)NC1=O` (single isomer, unassigned) [I-80, Ac-Phe-Asp-Ala-R8-Asp-Asp-Ala-Ala-Phe-Val-PyrS-2PyrA-Trp-Gln-NH2] and `CC(=O)N[C@@H](Cc1ccccc1)C(=O)N[C@@H](CC(=O)O)C(=O)N[C@@H](C)C(=O)N[C@]1(C)CCCCCCC=CCOC(=O)N2CC[C@@](C(=O)N[C@@H](Cc3cccnc3)C(=O)N[C@@H](Cc3c[nH]c4ccccc34)C(=O)N[C@@H](CCC(N)=O)C(N)=O)(C2)NC(=O)[C@H](C(C)C)NC(=O)[C@H](Cc2ccccc2)NC(=O)[C@H](C)NC(=O)[C@H](C)NC(=O)[C@H](CC(=O)O)NC(=O)[C@H](CC(=O)O)NC1=O` (single isomer, unassigned) [I-82, Ac-Phe-Asp-Ala-R8-Asp-Asp-Ala-Ala-Phe-Val-PyrS-3PyrA-Trp-Gln-NH2] are within 0.2 log units of each other in chromatographic logD: 1.04 for the first, 1 for the second.
